Laboratory results: US12552766B2, “Pesticidally active azole amide compounds” (SYNGENTA CROP PROTECTION AG, priority 2019, dated 2026)

Columns and labels:
Type in all cases: in vivo
[1] = tested on: Chilo suppressalis (Striped Rice Stemborer); assay: Example B4: Chilo suppressalis, artificial diet; details: 144 h, application rate of 200 ppm, L2 larvae, 6 days after infestation, read-out: control in at least one of the three categories (mortality, anti-feedant effect, or growth inhibition)
Description: 24-well microtiter plates with artificial diet were treated with aqueous test solutions prepared from 10′000 ppm DMSO stock solutions by pipetting. After drying, the plates were infested with L2 larvae (6-8 per well). The samples were assessed for mortality, anti-feeding effect, and growth inhibition in comparison to untreated samples 6 days after infestation. Control of Chilo suppressalis by a test sample is given when at least one of the categories mortality, anti-feedant effect, and growth inhibition is higher than the untreated sample.

[2] = tested on: Plutella xylostella (Diamond Back Moth); assay: Example B5: Plutella xylostella, artificial diet, 24-well; details: 192 h, application rate of 200 ppm, eggs, 8 days after infestation, read-out: control in at least one of the two categories (mortality or growth inhibition)
Description: 24-well microtiter plates with artificial diet were treated with aqueous test solutions prepared from 10′000 ppm DMSO stock solutions by pipetting. After drying, Plutella eggs were pipetted through a plastic stencil onto a gel blotting paper and the plate was closed with it. The samples were assessed for mortality and growth inhibition in comparison to untreated samples 8 days after infestation.

[3] = tested on: Spodoptera littoralis (Egyptian Cotton Leaf Worm); assay: Example B9: Spodoptera littoralis, spray on cotton leaf discs; details: foliar, 72 h, application rate of 200 ppm, L1 larvae, 3 days after infestation, read-out: control in at least one of the three categories (mortality, anti-feedant effect, or growth inhibition)
Description: Cotton leaf discs were placed onto agar in 24-well microtiter plates and sprayed with aqueous test solutions prepared from 10′000 ppm DMSO stock solutions. After drying the leaf discs were infested with five L1 larvae. The samples were assessed for mortality, anti-feeding effect, and growth inhibition in comparison to untreated samples 3 days after infestation. Control of Spodoptera littoralis by a test sample is given when at least one of the categories mortality, anti-feedant effect, and growth inhibition is higher than the untreated sample.

[4] = tested on: Plutella xylostella (Diamondback Moth); assay: Example B13: Plutella xylostella, artificial diet, 96-well; details: 216 h, application rate of 500 ppm, eggs/L1 larvae, 9 days after infestation
Description: 96-well microtiter plates containing artificial diet were treated with aqueous test solutions, prepared from 10′000 ppm DMSO stock solutions, by a liquid handling robot. After drying, eggs (˜30 per well) were infested onto a netted lid which was suspended above the diet. The eggs hatch and L1 larvae move down to the diet. The samples were assessed for mortality 9 days after infestation.

[5] = tested on: Diabrotica Balteata (Corn Root Worm); assay: Example B1: Diabrotica balteata, spray on maize sprouts; details: 96 h, application rate of 200 ppm, L2 larvae, 4 days after infestation, read-out: control in at least one of the two categories (mortality or growth inhibition)
Description: Maize sprouts placed onto an agar layer in 24-well microtiter plates were treated with aqueous test solutions prepared from 10′000 ppm DMSO stock solutions by spraying. After drying, the plates were infested with L2 larvae (6 to 10 per well). The samples were assessed for mortality and growth inhibition in comparison to untreated samples 4 days after infestation.

CC(NC(=O)c1cc(OCC(F)F)cc(C(F)(F)F)c1)c1nc(Br)nn1-c1ncc(OCC(F)(F)F)cn1 (stereo not drawn) [Compound P20, N-[1-[5-bromo-2-[5-(2,2,2-trifluoroethoxy)pyrimidin-2-yl]-1,2,4-triazol-3-yl]ethyl]-3-(2,2-difluoroethoxy)-5-(trifluoromethyl) benzamide]
≥ 80%: percent control (mortality, anti-feedant effect or growth inhibition) at 200 ppm [1] | percent control (mortality or growth inhibition) at 200 ppm [2] | percent control (mortality, anti-feedant effect or growth inhibition) at 200 ppm [3] | mortality at 500 ppm [4]

CC(NC(=O)c1cc(OCC(F)F)cc(C(F)(F)F)c1)c1nc(Br)nn1-c1ccc(OC(F)F)cn1 (stereo not drawn) [Compound P34, N-[1-[5-bromo-2-[5-(difluoromethoxy)-2-pyridyl]-1,2,4-triazol-3-yl]ethyl]-3-(2,2-difluoroethoxy)-5-(trifluoromethyl) benzamide]
≥ 80%: percent control (mortality or growth inhibition) at 200 ppm [5] | percent control (mortality, anti-feedant effect or growth inhibition) at 200 ppm [1] | percent control (mortality or growth inhibition) at 200 ppm [2] | percent control (mortality, anti-feedant effect or growth inhibition) at 200 ppm [3]

CC(NC(=O)c1cc(OCC(F)F)cc(C(F)(F)F)c1)c1nc(Br)nn1-c1ccc(OCC(F)F)cn1 (stereo not drawn) [Compound P36, N-[1-[5-bromo-2-[5-(2,2-difluoroethoxy)-2-pyridyl]-1,2,4-triazol-3-yl]ethyl]-3-(2,2-difluoroethoxy)-5-(trifluoromethyl) benzamide]
≥ 80%: percent control (mortality or growth inhibition) at 200 ppm [2] | percent control (mortality, anti-feedant effect or growth inhibition) at 200 ppm [3] | mortality at 500 ppm [4]

CC(NC(=O)c1cc(OC(F)F)cc(C(F)(F)F)c1)c1nc(Br)nn1-c1ccc(OCC(F)(F)F)cn1 (stereo not drawn) [Compound P38, N-[1-[5-bromo-2-[5-(2,2,2-trifluoroethoxy)-2-pyridyl]-1,2,4-triazol-3-yl]ethyl]-3-(difluoromethoxy)-5-(trifluoromethyl) benzamide]
≥ 80%: percent control (mortality or growth inhibition) at 200 ppm [5] | percent control (mortality, anti-feedant effect or growth inhibition) at 200 ppm [1] | percent control (mortality or growth inhibition) at 200 ppm [2] | percent control (mortality, anti-feedant effect or growth inhibition) at 200 ppm [3]

CC(NC(=O)c1cc(C(F)F)cc(C(F)(F)F)c1)c1nc(Br)nn1-c1ccc(OC(F)F)cn1 (stereo not drawn) [Compound P51, N-[1-[5-bromo-2-[5-(difluoromethoxy)-2-pyridyl]-1,2,4-triazol-3-yl]ethyl]-3-(difluoromethyl)-5-(trifluoromethyl) benzamide]
≥ 80%: percent control (mortality or growth inhibition) at 200 ppm [5] | percent control (mortality, anti-feedant effect or growth inhibition) at 200 ppm [1] | percent control (mortality or growth inhibition) at 200 ppm [2] | percent control (mortality, anti-feedant effect or growth inhibition) at 200 ppm [3]

CC(NC(=O)c1cc(OCC(F)(F)F)cc(C(F)(F)F)c1)c1nc(Br)nn1-c1ccc(OCC(F)F)cn1 (stereo not drawn) [Compound P53, N-[1-[5-bromo-2-[5-(2,2-difluoroethoxy)-2-pyridyl]-1,2,4-triazol-3-yl]ethyl]-3-(2,2,2-trifluoroethoxy)-5-(trifluoromethyl) benzamide]
≥ 80%: percent control (mortality, anti-feedant effect or growth inhibition) at 200 ppm [1] | percent control (mortality or growth inhibition) at 200 ppm [2] | mortality at 500 ppm [4]

CC(NC(=O)c1cc(C(F)F)cc(C(F)(F)F)c1)c1nc(Br)nn1-c1ccc(OCC(F)(F)F)cn1 (stereo not drawn) [Compound P54, N-[1-[5-bromo-2-[5-(2,2,2-trifluoroethoxy)-2-pyridyl]-1,2,4-triazol-3-yl]ethyl]-3-(difluoromethyl)-5-(trifluoromethyl) benzamide]
≥ 80%: percent control (mortality or growth inhibition) at 200 ppm [5] | percent control (mortality, anti-feedant effect or growth inhibition) at 200 ppm [1] | percent control (mortality or growth inhibition) at 200 ppm [2] | percent control (mortality, anti-feedant effect or growth inhibition) at 200 ppm [3]

CO/N=C(\C)c1nc(C(C)NC(=O)c2cc(C(F)(F)F)cc(C(F)(F)F)c2)n(-c2ccc(C#N)cn2)n1 (stereo not drawn) [Compound P56, N-[1-[2-(5-cyano-2-pyridyl)-5-[(E)-N-methoxy-C-methyl-carbonimidoyl]-1,2,4-triazol-3-yl]ethyl]-3,5-bis(trifluoromethyl) benzamide]
≥ 80%: mortality at 500 ppm [4]
